According to US12448388B2, “PRMT5 inhibitors and uses thereof” (Gilead Sciences, Inc., priority 2023, dated 2025):
pEC50: −log10 of the molar value.

Key:
[1] = system: Symmetric Di-methyl Arginine (SDMA) signal (PRMT5 inhibition) in HCT116 MTAP-deleted cells; assay: Symmetric di-methyl arginine image-based high content screen assay (SDMA assay), HCT116 MTAP-deleted; format: cell-based; conditions: for EC50 selectivity: HCT116 WT versus HCT116 MTAP-deleted; for pEC50: Homo sapiens, HCT-116, HCT116 MTAP-deleted, class symbols
Summary of the method: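 HCT116 WT and MTAP-deleted cells (800/well, RPMI 1640 + 10% FBS) treated with compound 3 days at 37 °C; formalin-fixed, stained with anti-SDMA antibody/Alexa 488 plus DAPI. Mean SDMA intensity per DAPI-defined cell imaged; EC50 from 4-parameter logistic fit.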

[2] = system: HCT116 MTAP-deleted cell lines; assay: Cell viability assay (CellTiter-Glo, 7 days), HCT116 MTAP-deleted; format: cell-based; conditions: Homo sapiens, HCT-116; cell viability, HCT116 MTAP-deleted; class symbols; read-out: CC50
Summary of the method: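 Luminescent ATP readout (CellTiter-Glo) after 7 days of continuous compound exposure gives the CC50 value. Cells were plated onto pre-dispensed DMSO dilution series of the PRMT5 inhibitors and kept at 37 °C in 5% CO2.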

| EC50 selectivity [1] | pEC50 [1] | Compound | CC50 [2] |
| --- | --- | --- | --- |
| 153 | 8.30 to 9.00 | CN(C(=O)c1cc2c(cc1F)nc(N)c1cncn12)[C@@H]1COc2cc(-c3cnn(C(F)F)c3)ccc21 [Ff-213, (S)-4-amino-N-(6-(1-(difluoromethyl)-1H-pyrazol-4-yl)-2,3-dihydrobenzofuran-3-yl)-7-fluoro-N-methylimidazo[1,5-a]quinoxaline-8-carboxamide] | < 100 nM |
| 60 | ≥ 9.00 | CN(C(=O)c1cc2c(cc1F)nc(N)c1cncn12)[C@@H]1COCc2cc(-c3cnn(C(F)(F)F)c3)ccc21 [Ff-279, (S)-4-amino-7-fluoro-N-methyl-N-(7-(1-(trifluoromethyl)-1H-pyrazol-4-yl)isochroman-4-yl)imidazo[1,5-a]quinoxaline-8-carboxamide] | < 100 nM |
| 118 | 8.30 to 9.00 | CN(C(=O)c1cc2c(cc1F)nc(N)c1cncn12)[C@@H]1COCc2cc(-c3ccn(C(F)(F)F)n3)ccc21 [Ff-280, (S)-4-amino-7-fluoro-N-methyl-N-(7-(1-(trifluoromethyl)-1H-pyrazol-3-yl)isochroman-4-yl)imidazo[1,5-a]quinoxaline-8-carboxamide] | < 100 nM |

Continued, molecule first:

| Compound | EC50 selectivity [1] | pEC50 [1] | CC50 [2] |
| --- | --- | --- | --- |
| C[C@H]1CN(C(=O)c2cc3c(cc2F)nc(N)c2cncn23)[C@H]2c3cc(F)c(C4CC4)cc3C[C@H]2O1 [Ff-201, (4-amino-7-fluoroimidazo[1,5-a]quinoxalin-8-yl)((2S,4aS,9aR)-7-cyclopropyl-6-fluoro-2-methyl-2,3,9,9a-tetrahydroindeno[2,1-b][1,4]oxazin-4(4aH)-yl)methanone] | 58 | 8.30 to 9.00 | < 100 nM |
| Nc1nc2cc(F)c(C(=O)N(Cc3ccc(C(F)(F)F)cc3F)C34CC(C3)C4)cc2n2cncc12 [Ff-210, 4-amino-N-(bicyclo[1.1.1]pentan-1-yl)-7-fluoro-N-(2-fluoro-4-(trifluoromethyl)benzyl)imidazo[1,5-a]quinoxaline-8-carboxamide] | 45 | ≥ 9.00 | < 100 nM |
| CN(C(=O)c1cc2c(cc1F)nc(N)c1cncn12)[C@@H]1COc2cc(-c3cnn(C4CC4)c3)ccc21 [Ff-215, (S)-4-amino-N-(6-(1-cyclopropyl-1H-pyrazol-4-yl)-2,3-dihydrobenzofuran-3-yl)-7-fluoro-N-methylimidazo[1,5-a]quinoxaline-8-carboxamide] | 224 | 8.30 to 9.00 | < 100 nM |
| Cn1cc(N(Cc2ccc(C(F)(F)F)cc2F)C(=O)c2ccc3nc(N)c4cncn4c3c2)cn1 [Ff-278, 4-amino-N-(2-fluoro-4-(trifluoromethyl)benzyl)-N-(1-methyl-1H-pyrazol-4-yl)imidazo[1,5-a]quinoxaline-8-carboxamide] | 47 | 8.30 to 9.00 | < 100 nM |
| Nc1nc2cc(Cl)c(C(=O)N3CCOC[C@@H]3c3ccc(C(F)(F)F)cc3)cc2n2cncc12 [Ff-289, (S)-(4-amino-7-chloroimidazo[1,5-a]quinoxalin-8-yl)(3-(4-(trifluoromethyl)phenyl)morpholino)methanone] | 88 | ≥ 9.00 | < 100 nM |
| Cc1ncc2c(N)nc3cc(F)c(C(=O)N(C)[C@@H]4COCc5nc(C(F)(F)F)ccc54)cc3n12 [Ff-304, (S)-4-amino-7-fluoro-N,1-dimethyl-N-(2-(trifluoromethyl)-5,8-dihydro-6H-pyrano[3,4-b]pyridin-5-yl)imidazo[1,5-a]quinoxaline-8-carboxamide] | 127 | 8.30 to 9.00 | < 100 nM |
| CN(C(=O)c1cc2c(cc1F)nc(N)c1cncn12)[C@@H]1COc2cc(-n3cnc(C(F)(F)F)n3)ccc21 [Ff-324, (S)-4-amino-7-fluoro-N-methyl-N-(6-(3-(trifluoromethyl)-1H-1,2,4-triazol-1-yl)-2,3-dihydrobenzofuran-3-yl)imidazo[1,5-a]quinoxaline-8-carboxamide] | 53 | 8.30 to 9.00 | < 100 nM |
